Experimental findings from patent publication US10490837B2, “Bioreactor comprising immobilized enzyme, method for improving activity of immobilized enzyme, and biofuel cell” (TOYOTA JIDOSHA KABUSHIKI KAISHA, priority 2012, dated 2019) are described below.

Test [1] deals with Glucose dehydrogenase (immobilized enzyme). The note with it: substrate glucose, NADP; 1M additive/buffer pH 7.0; 25° C. for 30 minutes.
Method: (§1) The solution was stirred at 25° C. for 30 minutes to allow the enzyme to react with the substrate. Then, WST1 and mPMS were added for color development. Absorbance was measured with a spectrophotometer.
Test [2] concerns Glutamate dehydrogenase (immobilized enzyme). The note with it: substrate monosodium glutamate, NADP; 1M additive/buffer pH 7.0; 25° C. for 30 minutes.
Method: as §1
Test [3] relates to Formate dehydrogenase (immobilized enzyme). The note with it: substrate sodium formate, NAD; 1M additive/buffer pH 7.0; 25° C. for 30 minutes.
Method: as §1
The test system is the same in test [4]. The test can be described thus: Effects of heterocyclic compounds on activity of immobilized formate dehydrogenase (WST1/mPMS, absorbance), Examples 4-8. To be noted: for enzyme activity of immobilized enzyme in the presence of the heterocyclic compound (in words): immobilized formate dehydrogenase, Examples 4-8. A general note: Formazan colour is commonly taken as a measure of viable cells.
Method: A support was applied a fibrous base material cut in pieces 1 cm^2 in area, followed by drying. Each piece of fibrous base material was allowed to absorb a liquid obtained by mixing 2.5% glutaraldehyde, 20% poly-L-lysine, 10 mM Tris-HCl (pH 8.0), and formate dehydrogenase, followed by drying. Thus, immobilized enzymes were prepared.
The solution was stirred at 25° C. for 30 minutes to induce a reaction. Then, WST1 and mPMS were added for color development. Absorbance was measured with a spectrophotometer (Infinite M200 manufactured by TECAN).

“Also recorded” adds a separate entry of the source. Where two headings read alike, the source gives them in different places.

In test [1], `Cl.c1c[nH]cn1` [Example 1, imidazole HCl] displayed an OD of 0.4668. Consider `Cl.c1c[nH]cn1` [Example 2, imidazole HCl], for which the OD in test [2] amounted to 1.1707. In test [3], `Cl.c1c[nH]cn1` [Example 3, imidazole HCl] had an OD of 0.5996.

For the molecule `c1cnccn1` [Example 4, Pyrazine], the “enzyme activity of immobilized enzyme in the presence of the heterocyclic compound (in words)” value (shortened to “enzyme activity of immobilized enzyme”) in test [4] is recorded as “excellent enzyme activity; also recorded: significantly improved enzyme activity”. Turning to `O=C1NCCN1` [Example 5, 2-Imidazolidinone], the “enzyme activity of immobilized enzyme” value in test [4] was “excellent enzyme activity; also recorded: significantly improved enzyme activity”. In the case of `C=Cn1ccnc1` [Example 6, 1-Vinylimidazole], in test [4], the “enzyme activity of immobilized enzyme” value is given as “excellent enzyme activity; also recorded: significantly improved enzyme activity”. `N[C@@H](Cc1c[nH]cn1)C(=O)O` [Example 8, Histidine]: the OD in test [4] (0.2M heterocyclic compound, 25° C. for 30 minutes) worked out at 1.1902. In test [4], the “enzyme activity of immobilized enzyme” value is listed as “excellent enzyme activity”. In test [1], “sodium phosphate buffer [Comparative Example 1, reference compound]” showed an OD of 0.1598.

For “sodium phosphate buffer [Comparative Example 3, reference compound]”, the OD in test [3] is recorded as 0.4134.

For “sodium phosphate buffer [reference compound]”, the OD in test [2] is 0.3966.
